Measurements from the NIST ThermoML archive (doi:10.1016/j.jct.2011.02.008).

Assay: xn = mol fraction of the nth substance listed
Details: Liquid, Vibrating tube method

COC(=O)c1ccccc1 [methyl benzoate] + C1CCCCC1
mass density [kg/m3]
Details | x1 = 0.0985 | x1 = 0.1963 | x1 = 0.2939 | x1 = 0.3942 | x1 = 0.4955 | x1 = 0.596 | x1 = 0.6975 | x1 = 0.7993 | x1 = 0.8982
318.15 K, 30000 kPa | – | – | 873.9 | 905.1 | 936.2 | 967.6 | 997.8 | 1026.6 | 1054.7
318.15 K, 35000 kPa | 815.3 | 846.3 | 877.5 | 908.6 | 939.6 | 971 | 1001 | 1029.7 | 1057.8
318.15 K, 40000 kPa | 818.8 | 849.9 | 880.9 | 912 | 942.9 | 974.2 | 1004.1 | 1032.7 | 1060.7
318.15 K, 45000 kPa | 822.2 | 853.2 | 884.3 | 915.2 | 946.1 | 977.3 | 1007.1 | 1035.7 | 1063.6
318.15 K, 50000 kPa | 825.5 | 856.5 | 887.5 | 918.4 | 949.2 | 980.3 | 1010.1 | 1038.6 | 1066.5
318.15 K, 55000 kPa | 828.7 | 859.7 | 890.6 | 921.5 | 952.3 | 983.3 | 1013 | 1041.5 | 1069.3
318.15 K, 60000 kPa | 831.6 | 862.5 | 893.4 | 924.3 | 955.1 | 986 | 1015.7 | 1044.1 | 1071.8
328.15 K, 100 kPa | 776 | 807.7 | 839.6 | 871.6 | 903.6 | 935.6 | 966.7 | 996.3 | 1025.1
328.15 K, 1000 kPa | 777 | 808.7 | 840.5 | 872.5 | 904.4 | 936.4 | 967.4 | 997 | 1025.8
328.15 K, 5000 kPa | 781.2 | 812.7 | 844.5 | 876.3 | 908.1 | 939.9 | 970.6 | 1000.2 | 1028.9
328.15 K, 10000 kPa | 786.2 | 817.6 | 849.2 | 880.4 | 912.3 | 944.1 | 974.8 | 1004 | 1032.6
328.15 K, 15000 kPa | 790.7 | 822.1 | 853.6 | 885.1 | 916.5 | 948.1 | 978.6 | 1007.7 | 1036.2
328.15 K, 20000 kPa | 795.2 | 826.5 | 857.8 | 889.2 | 920.5 | 951.9 | 982.3 | 1011.3 | 1039.7
328.15 K, 25000 kPa | 799.4 | 830.6 | 861.8 | 893.1 | 924.3 | 955.6 | 985.9 | 1014.7 | 1043
328.15 K, 30000 kPa | 803.4 | 834.5 | 865.7 | 896.9 | 928 | 959.2 | 989.4 | 1018.1 | 1046.3
328.15 K, 35000 kPa | 807.3 | 838.3 | 869.4 | 900.5 | 931.5 | 962.7 | 992.7 | 1021.4 | 1049.4
328.15 K, 40000 kPa | 811 | 842 | 873 | 904.1 | 935 | 966 | 996 | 1024.5 | 1052.5
328.15 K, 45000 kPa | 814.6 | 845.5 | 876.5 | 907.5 | 938.3 | 969.3 | 999.1 | 1027.6 | 1055.5
328.15 K, 50000 kPa | 818 | 848.9 | 879.8 | 910.8 | 941.5 | 972.5 | 1002.2 | 1030.7 | 1058.5
328.15 K, 55000 kPa | 821.3 | 852.2 | 883.1 | 914 | 944.7 | 975.6 | 1005.3 | 1033.6 | 1061.4
328.15 K, 60000 kPa | 824.3 | 855.5 | 886.1 | 916.9 | 947.6 | 978.3 | 1008 | 1036.3 | 1064.2
338.15 K, 100 kPa | 766.2 | 798 | 829.9 | 861.9 | 893.9 | 926 | 957 | 986.6 | 1015.6
338.15 K, 1000 kPa | 767.2 | 799 | 830.9 | 862.8 | 894.7 | 926.8 | 957.8 | 987.4 | 1016.3
338.15 K, 5000 kPa | 771.8 | 803.4 | 835.1 | 866.9 | 898.7 | 930.5 | 961.3 | 990.8 | 1019.6
338.15 K, 10000 kPa | 777 | 808.5 | 840 | 871.6 | 903.2 | 934.9 | 965.6 | 994.9 | 1023.5
338.15 K, 15000 kPa | 782 | 813.3 | 844.7 | 876.2 | 907.6 | 939.2 | 969.6 | 998.8 | 1027.2
338.15 K, 20000 kPa | 786.7 | 817.9 | 849.2 | 880.5 | 911.8 | 943.2 | 973.5 | 1002.5 | 1030.8
338.15 K, 25000 kPa | 791.1 | 822.3 | 853.4 | 884.6 | 915.8 | 946.9 | 977.3 | 1006.2 | 1034.4
338.15 K, 30000 kPa | 795.4 | 826.4 | 857.5 | 888.6 | 919.6 | 950.8 | 980.9 | 1009.7 | 1037.8
338.15 K, 35000 kPa | 799.4 | 830.4 | 861.4 | 892.4 | 923.4 | 954.5 | 984.4 | 1013.1 | 1040.9
338.15 K, 40000 kPa | 803.3 | 834.2 | 865.2 | 896.1 | 927 | 958 | 987.8 | 1016.4 | 1044.3
338.15 K, 45000 kPa | 807 | 837.9 | 868.8 | 899.6 | 930.4 | 961.4 | 991.1 | 1019.6 | 1047.5
338.15 K, 50000 kPa | 810.6 | 841.5 | 872.3 | 903.1 | 933.8 | 964.7 | 994.4 | 1022.8 | 1050.5
338.15 K, 55000 kPa | 814.1 | 844.9 | 875.7 | 906.4 | 937.1 | 967.9 | 997.5 | 1025.8 | 1053.6
338.15 K, 60000 kPa | 817.3 | 848.1 | 878.8 | 909.7 | 940.1 | 971.1 | 1000.4 | 1028.6 | 1056.3
348.15 K, 100 kPa | 756.3 | 788.1 | 820 | 852.1 | 884.1 | 916.3 | 947.3 | 976.9 | 1005.9
348.15 K, 1000 kPa | 757.4 | 789.2 | 820.9 | 853 | 885 | 917.1 | 948.1 | 977.7 | 1006.7
348.15 K, 5000 kPa | 762.1 | 793.8 | 825.6 | 857.4 | 889.1 | 921.1 | 951.8 | 981.3 | 1010.1
348.15 K, 10000 kPa | 767.9 | 799.3 | 830.9 | 862.4 | 894 | 925.8 | 956.3 | 985.5 | 1014.3
348.15 K, 15000 kPa | 773.1 | 804.4 | 835.8 | 867.2 | 898.6 | 930.2 | 960.6 | 989.7 | 1018.2
348.15 K, 20000 kPa | 778.1 | 809.3 | 840.5 | 871.8 | 903.1 | 934.4 | 964.7 | 993.6 | 1022
348.15 K, 25000 kPa | 782.8 | 813.9 | 845 | 876.1 | 907.3 | 938.5 | 968.7 | 997.5 | 1025.7
348.15 K, 30000 kPa | 787.2 | 818.2 | 849.3 | 880.3 | 911.3 | 942.4 | 972.5 | 1001.1 | 1029.3
348.15 K, 35000 kPa | 791.5 | 822.4 | 853.4 | 884.2 | 915.2 | 946.2 | 976.1 | 1004.7 | 1032.7
348.15 K, 40000 kPa | 795.5 | 826.4 | 857.3 | 888.1 | 918.9 | 949.9 | 979.7 | 1008.2 | 1036.1
348.15 K, 45000 kPa | 799.5 | 830.3 | 861.1 | 891.8 | 922.6 | 953.4 | 983.2 | 1011.5 | 1039.4
348.15 K, 50000 kPa | 803.2 | 834 | 864.7 | 895.4 | 926.1 | 956.9 | 986.5 | 1014.8 | 1042.5
348.15 K, 55000 kPa | 806.8 | 837.6 | 868.3 | 898.9 | 929.5 | 960.2 | 989.8 | 1018 | 1045.7
348.15 K, 60000 kPa | 810.1 | 840.9 | 871.4 | 902.1 | 932.6 | 963.3 | 992.7 | 1020.9 | 1048.5
358.15 K, 100 kPa | 746 | 778 | 809.9 | 842 | 874.1 | 906.3 | 937.3 | 967 | 996.1
358.15 K, 1000 kPa | 747.1 | 779.1 | 811 | 843.1 | 875.1 | 907.3 | 938.3 | 967.9 | 996.9
358.15 K, 5000 kPa | 752.5 | 784.2 | 815.9 | 847.7 | 879.4 | 911.4 | 942 | 971.7 | 1000.6
358.15 K, 10000 kPa | 757.8 | 790 | 821.5 | 853.1 | 884.7 | 916.4 | 947 | 976.2 | 1004.9
358.15 K, 15000 kPa | 764.1 | 795.5 | 826.7 | 858.2 | 889.6 | 921.1 | 951.4 | 980.6 | 1009
358.15 K, 20000 kPa | 769.4 | 800.6 | 831.8 | 863 | 894.2 | 925.6 | 955.8 | 984.7 | 1013
358.15 K, 25000 kPa | 774.3 | 805.5 | 836.5 | 867.6 | 898.6 | 929.9 | 960 | 988.7 | 1016.9
358.15 K, 30000 kPa | 779 | 810 | 841 | 871.8 | 902.9 | 934 | 963.9 | 992.6 | 1020.6
358.15 K, 35000 kPa | 783.5 | 814.4 | 845.3 | 876.1 | 907 | 938 | 967.8 | 996.3 | 1024.2
358.15 K, 40000 kPa | 787.7 | 818.6 | 849.4 | 880.1 | 910.9 | 941.8 | 971.5 | 999.9 | 1027.8
358.15 K, 45000 kPa | 791.8 | 822.6 | 853.3 | 884 | 914.7 | 945.5 | 975.1 | 1003.4 | 1031.2
358.15 K, 50000 kPa | 795.7 | 826.5 | 857.1 | 887.8 | 918.3 | 949 | 978.6 | 1006.8 | 1034.5
358.15 K, 55000 kPa | 799.5 | 830.2 | 860.8 | 891.4 | 921.9 | 952.5 | 982 | 1010.1 | 1037.8
358.15 K, 60000 kPa | 802.9 | 832.8 | 864.2 | 894.6 | 925.1 | 955.7 | 985 | 1013.1 | 1040.9
